± gives the standard deviation of the averaged measurements.
Tested on: SW684
Experiment: relative viability vs DMSO control (72 h) (fraction); higher = more viable cells
Procedure, shortened: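 Sarcoma cell lines were plated in 384 wells to reach 80–90% confluence, treated after 24 h with 2.5 µl of serially diluted compound and held 72 h at 37 °C, 5% CO2. Relative viability was taken as percent growth from ATPLite readings, averaged over up to triplicate wells. The values were rescaled so that 1 marks full and 0 marks none.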

Structure (SMILES)	relative viability (0.00017 µM)	relative viability (0.00051 µM)	relative viability (0.00152 µM)	relative viability (0.00457 µM)	relative viability (0.01372 µM)	relative viability (0.04115 µM)	relative viability (0.1235 µM)	relative viability (0.3704 µM)	relative viability (1.111 µM)	relative viability (3.333 µM)	relative viability (10 µM)
C=CC(=O)Nc1cccc(Oc2nc(Nc3ccc(N4CCN(C)CC4)cc3)nc3ccsc23)c1 [Olmutinib]	1.07 ± 0.043	1.14 ± 0.069	1.08 ± 0.029	1.15 ± 0.061	1.05 ± 0.014	1.09 ± 0.025	1.149 ± 0.0031	1.14 ± 0.073	1.07 ± 0.049	0.849 ± 0.032	0.0282 ± 0.0066
CC(C)(C)c1cc(NC(=O)Nc2ccc(-c3cn4c(n3)sc3cc(OCCN5CCOCC5)ccc34)cc2)no1 [Quizartinib]	1.11 ± 0.14	1.209 ± 0.012	1.21 ± 0.095	1.23 ± 0.019	1.2 ± 0.052	1.14 ± 0.012	1.21 ± 0.03	1.23 ± 0.061	1.14 ± 0.078	1.03 ± 0.038	0.734 ± 0.077
CC(C)NC(=O)C1CCC(n2c(NC(=O)c3ccc(F)cc3)nc3ccc(CN4CCC(C(C)(C)O)CC4)cc32)CC1 (stereo not drawn) [Belizatinib]	1.169 ± 0.011	1.17 ± 0.071	1.19 ± 0.024	1.21 ± 0.098	1.21 ± 0.11	1.17 ± 0.056	1.16 ± 0.012	1.18 ± 0.03	1.09 ± 0.048	0.798 ± 0.034	0.381 ± 0.056
Cc1ccc(F)c(NC(=O)Nc2ccc(-c3cccc4[nH]nc(N)c34)cc2)c1 [Linifanib]	1.11 ± 0.014	1.14 ± 0.02	1.13 ± 0.039	1.18 ± 0.03	1.17 ± 0.023	1.18 ± 0.04	1.15 ± 0.027	1.139 ± 0.011	1.16 ± 0.045	1.15 ± 0.049	1.12 ± 0.041
Cc1nc(NC(=O)N2CCC[C@H]2C(N)=O)sc1-c1ccnc(C(C)(C)C(F)(F)F)c1 [Alpelisib]	1.09 ± 0.054	1.12 ± 0.043	1.12 ± 0.059	1.15 ± 0.065	1.09 ± 0.089	1.05 ± 0.026	1.07 ± 0.061	0.968 ± 0.025	0.876 ± 0.0097	0.643 ± 0.025	0.446 ± 0.036
C[C@]1(O)C[C@@H](c2nc(-c3ccc4ccc(-c5ccccc5)nc4c3)c3c(N)nccn32)C1 [Linsitinib]	1.13 ± 0.073	1.17 ± 0.016	1.18 ± 0.021	1.159 ± 0.0094	1.16 ± 0.065	1.14 ± 0.021	1.13 ± 0.039	1.11 ± 0.04	1.09 ± 0.035	1.07 ± 0.019	0.978 ± 0.057
C=CC(=O)N1CCC([C@@H]2CCNc3c(C(N)=O)c(-c4ccc(Oc5ccccc5)cc4)nn32)CC1 [Zanubrutinib]	0.998 ± 0.075	1.03 ± 0.08	1 ± 0.07	0.998 ± 0.054	1 ± 0.069	1.01 ± 0.028	1.01 ± 0.047	0.978 ± 0.074	0.985 ± 0.048	0.925 ± 0.038	0.89 ± 0.042
CCc1cc2c(cc1N1CCC(N3CCOCC3)CC1)C(C)(C)c1[nH]c3cc(C#N)ccc3c1C2=O [Alectinib]	1.15 ± 0.037	1.13 ± 0.066	1.11 ± 0.035	1.129 ± 0.011	1.19 ± 0.058	1.2 ± 0.1	1.21 ± 0.055	1.22 ± 0.073	1.2 ± 0.055	1.16 ± 0.022	1.18 ± 0.04

From the supplement of paper PMC10883282
